Reference: patent publication US9902728B2, “Pyrrolo and pyrazolopyrimidines as ubiquitin-specific protease 7 inhibitors” (Forma Therapeutics, Inc., priority 2014, dated 2018)

These molecules were tested against T1, USP7 (Homo sapiens, UniProt Q93009) (assay: USP7 Assay A (Ubitquin-Rhodamine 110 Assay)). Settings: USP7 activity in USP7 assay A and B (table does not say which assay per compound); read-out: USP7_IC50.
T1 construct: USP7, construct USP7 (208-1102) 6*His, Viva Biotech; 6xHis (C); purchased Viva Biotech
T1 sequence (Q93009 208-1102): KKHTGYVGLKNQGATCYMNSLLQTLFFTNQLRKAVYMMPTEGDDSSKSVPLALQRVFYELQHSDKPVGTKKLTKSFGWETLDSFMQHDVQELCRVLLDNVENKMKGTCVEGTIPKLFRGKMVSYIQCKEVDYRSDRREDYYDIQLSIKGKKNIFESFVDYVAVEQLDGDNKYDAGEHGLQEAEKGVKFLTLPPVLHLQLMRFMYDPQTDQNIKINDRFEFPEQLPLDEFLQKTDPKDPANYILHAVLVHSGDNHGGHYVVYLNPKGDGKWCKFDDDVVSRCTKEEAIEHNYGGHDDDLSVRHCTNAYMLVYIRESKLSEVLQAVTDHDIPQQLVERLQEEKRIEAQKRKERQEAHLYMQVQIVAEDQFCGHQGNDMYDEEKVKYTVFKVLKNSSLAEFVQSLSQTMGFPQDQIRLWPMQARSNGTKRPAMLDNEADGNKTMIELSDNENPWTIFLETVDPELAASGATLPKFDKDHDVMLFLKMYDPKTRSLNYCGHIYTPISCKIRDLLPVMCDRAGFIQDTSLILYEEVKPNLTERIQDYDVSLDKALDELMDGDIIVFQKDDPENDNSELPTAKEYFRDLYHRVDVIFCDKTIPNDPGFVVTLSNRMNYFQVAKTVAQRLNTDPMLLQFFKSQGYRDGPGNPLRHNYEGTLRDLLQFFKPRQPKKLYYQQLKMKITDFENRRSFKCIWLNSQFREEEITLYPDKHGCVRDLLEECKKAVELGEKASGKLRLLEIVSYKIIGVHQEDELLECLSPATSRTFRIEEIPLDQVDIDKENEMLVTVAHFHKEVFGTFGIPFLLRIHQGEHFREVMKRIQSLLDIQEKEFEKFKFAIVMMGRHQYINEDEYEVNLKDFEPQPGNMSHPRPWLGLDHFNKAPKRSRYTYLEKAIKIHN
Assay type: biochemical
Summary of the method: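 Enzyme and compound sat together for 30 min before Ub-Rh110 was added, in buffer of 20 mM Tris-HCl (pH 8.0), 1 mM GSH, 0.03% BGG and 0.01% Triton X-100.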
`O=C(N1CCC(Oc2ccccn2)CC1)N1CCC(O)(Cn2cnc3c(cnn3-c3ccc(F)cc3)c2=O)CC1` [Compound I-610] was tested, and the IC50 was 1000 to 10000 nM.
In the case of `O=C(c1ccc(-n2ncc3c2CNC3)cc1)N1CCC(O)(Cn2cnc3c(cnn3-c3ccc(F)cc3)c2=O)CC1` [Compound I-611], the IC50 is reported as 1000 to 10000 nM.
`O=C(c1ccc(-n2cc(CO)cn2)cc1)N1CCC(O)(Cn2cnc3c(cnn3-c3ccc(F)cc3)c2=O)CC1` [Compound I-612] showed an IC50 of 1000 to 10000 nM.
`NCc1cnn(-c2ccc(C(=O)N3CCC(O)(Cn4cnc5c(cnn5-c5ccc(F)cc5)c4=O)CC3)cc2)c1` [Compound I-613] showed an IC50 of 1000 to 10000 nM.
`O=C(c1cnc(C2CC2)o1)N1CCC(O)(Cn2cnc3c(cnn3-c3ccc(C4CC4)cc3)c2=O)CC1` [Compound I-629] was tested, and the IC50 was < 200 nM.
Molecule `O=C(c1cnc(N2CCOCC2)o1)N1CCC(O)(Cn2cnc3c(cnn3-c3ccc(-c4ccccc4)cc3)c2=O)CC1` [Compound I-643] has an IC50 of 200 to 1000 nM.
`O=C(C[C@H](C(F)F)n1cccn1)N1CCC(O)(Cn2cnc3c(cnn3-c3ccc(-c4ccccc4)cc3)c2=O)CC1` [Compound I-645] showed an IC50 of 200 to 1000 nM.
In the case of `O=C(C[C@@H](C(F)F)n1cccn1)N1CCC(O)(Cn2cnc3c(cnn3-c3ccc(-c4ccccc4)cc3)c2=O)CC1` [Compound I-646], the IC50 is reported as 1000 to 10000 nM.
`C=CC(=O)N1CC[C@]1(C)C(=O)N1CCC(O)(Cn2cnc3c(cnn3-c3ccc(-c4ccccc4)cc3)c2=O)CC1` [Compound I-660] showed an IC50 of 200 to 1000 nM.
In the case of `Cc1ccc(C(=O)N2CCC(O)(Cn3cnc4c(cnn4-c4ccc(-n5cc(OCCO)cn5)cc4)c3=O)CC2)cc1` [Compound I-672], the IC50 is reported as 200 to 1000 nM.
`Cc1ncn(-c2ccc(-n3ncc4c(=O)n(CC5(O)CCN(C(=O)c6ccc(F)cc6)CC5)cnc43)cc2)n1` [Compound I-673] gave an IC50 of 1000 to 10000 nM.
In the case of `CN1CC[C@@H](Oc2ccc(-c3ccc(-n4ncc5c(=O)n(CC6(O)CCN(C(=O)C7CC7)CC6)cnc54)cc3)cc2)C1` [Compound I-679], the IC50 is reported as < 200 nM.
Work on `CN1CC[C@H](Oc2ccc(-c3ccc(-n4ncc5c(=O)n(CC6(O)CCN(C(=O)C7CC7)CC6)cnc54)cc3)cc2)C1` [Compound I-680] yielded an IC50 of 200 to 1000 nM.
For `CN[C@H]1CCN(c2ccc(-c3ccc(-n4ncc5c(=O)n(CC6(O)CCN(C(=O)C7CC7)CC6)cnc54)cc3)cn2)C1` [Compound I-684], the IC50 was < 200 nM.
`CNC1CCN(c2ccc(-c3ccc(-n4ncc5c(=O)n(CC6(O)CCN(C(=O)C7CC7)CC6)cnc54)cc3)cn2)C1` (stereo not drawn) [Compound I-685] was tested, and the IC50 was < 200 nM.
With `O=C(C1CC1)N1CCC(O)(Cn2cnc3c(cnn3-c3ccc(-c4ccc(N5CC[C@H](O)C5)nc4)cc3)c2=O)CC1` [Compound I-686] the IC50 was 200 to 1000 nM.
With `O=C(C1CC1)N1CCC(O)(Cn2cnc3c(cnn3-c3ccc(-c4ccc(N5CC[C@@H](O)C5)nc4)cc3)c2=O)CC1` [Compound I-687] the IC50 was 200 to 1000 nM.
With `CN[C@H]1CCN(c2ccc(-c3ccc(-n4ncc5c(=O)n(CC6(O)CCN(C(=O)C7CC7)CC6)cnc54)cc3)cc2)C1` [Compound I-689] the IC50 was < 200 nM.
In the case of `CN[C@@H]1CCN(c2ccc(-c3ccc(-n4ncc5c(=O)n(CC6(O)CCN(C(=O)C7CC7)CC6)cnc54)cc3)cc2)C1` [Compound I-690], the IC50 is reported as 200 to 1000 nM.
For `CN1CC(Oc2ccc(-n3ncc4c(=O)n(CC5(O)CCN(C(=O)c6ccc(F)cc6)CC5)cnc43)cc2)C1` [Compound I-692], the IC50 was < 200 nM.
For `O=C(c1ccc(F)cc1)N1CCC(O)(Cn2cnc3c(cnn3-c3ccc(OCC4(F)CCOCC4)cc3)c2=O)CC1` [Compound I-693], the IC50 was 200 to 1000 nM.
`O=C(c1ccc(F)cc1)N1CCC(O)(Cn2cnc3c(cnn3-c3ccc(OCC4(F)CCC4)cc3)c2=O)CC1` [Compound I-696] showed an IC50 of 200 to 1000 nM.
With `CN1CCN(C(=O)N2CCC(O)(Cn3cnc4c(cnn4-c4ccc(OC5CCC(F)(F)CC5)cc4)c3=O)CC2)CC1` [Compound I-697] the IC50 was > 10000 nM.
`O=C(c1cnc(C2CC2)o1)N1CCC(O)(Cn2cnc3c(cnn3-c3ccc(N4CCC(F)(F)CC4)cc3)c2=O)CC1` [Compound I-699] was tested, and the IC50 was 200 to 1000 nM.

Same assay, conditions: USP7 assay A and B (table does not say which assay per compound); read-out: USP7_IC50
With `CN1CCC(c2ccc(C(=O)N3CCC(O)(Cn4cnc5c(cnn5-c5ccc(F)cc5)c4=O)CC3)cc2)CC1` [Compound I-605] the IC50 was > 10000 nM.
For `CN1CCN(c2ccc(C(=O)N3CCC(O)(Cn4cnc5c(cnn5-c5ccc(F)cc5)c4=O)CC3)cc2)CC1` [Compound I-606], the IC50 was 1000 to 10000 nM.
With `COc1ccc(C(=O)N2CCC(O)(C(C)n3cnc4c(cnn4-c4ccc(F)cc4)c3=O)CC2)cc1` (stereo not drawn) [Compound I-614] the IC50 was > 10000 nM.
`COc1ccc(-n2ncc3c(=O)n(CC4(O)CCN(C(=O)c5ccc(F)cc5)CC4)cnc32)cc1` [Compound I-620] showed an IC50 of 200 to 1000 nM.
In the case of `COc1cccc(-n2ncc3c(=O)n(CC4(O)CCN(C(=O)c5ccc(F)cc5)CC4)cnc32)c1` [Compound I-621], the IC50 is reported as 1000 to 10000 nM.
Work on `COc1ccc(-n2ncc3c(=O)n(C(C)C4(O)CCN(C(=O)c5ccc(F)cc5)CC4)cnc32)cc1` (stereo not drawn) [Compound I-624] yielded an IC50 of 200 to 1000 nM.
With `COc1ccc(C(=O)N2CCC(O)(C(C)n3cnc4c(cnn4-c4ccc(OC)cc4)c3=O)CC2)cc1` (stereo not drawn) [Compound I-625] the IC50 was 1000 to 10000 nM.
Molecule `COc1cc(-n2ncc3c(=O)n(CC4(O)CCN(C(=O)c5ccc(F)cc5)CC4)cnc32)ccc1F` [Compound I-627] has an IC50 of 1000 to 10000 nM.
`O=C(c1ccc(F)cc1)N1CCC(O)(Cn2cnc3c(cnn3-c3ccc(F)c(O)c3)c2=O)CC1` [Compound I-632] showed an IC50 of 1000 to 10000 nM.
`COC1(C)CCN(c2cc(-n3ncc4c(=O)n(CC5(O)CCN(C(=O)C6CC6)CC5)cnc43)ccc2F)C1` (stereo not drawn) [Compound I-633] was tested, and the IC50 was 1000 to 10000 nM.
For `CN1CCN(c2cc(-n3ncc4c(=O)n(CC5(O)CCN(C(=O)c6ccccc6)CC5)cnc43)ccc2F)CC1` [Compound I-634], the IC50 was 1000 to 10000 nM.
In the case of `Nc1cc(-n2ncc3c(=O)n(CC4(O)CCN(C(=O)c5ccc(F)cc5)CC4)cnc32)ccc1F` [Compound I-635], the IC50 is reported as 1000 to 10000 nM.
With `CC1(O)CCN(c2cc(-n3ncc4c(=O)n(CC5(O)CCN(C(=O)C6CC6)CC5)cnc43)ccc2F)C1` (stereo not drawn) [Compound I-636] the IC50 was 200 to 1000 nM.
For `C[C@]1(O)CCN(c2cc(-n3ncc4c(=O)n(CC5(O)CCN(C(=O)C6CC6)CC5)cnc43)ccc2F)C1` [Compound I-637], the IC50 was 200 to 1000 nM.
`C[C@@]1(O)CCN(c2cc(-n3ncc4c(=O)n(CC5(O)CCN(C(=O)C6CC6)CC5)cnc43)ccc2F)C1` [Compound I-638] gave an IC50 of 200 to 1000 nM.
Molecule `O=C(c1ccc(F)cc1)N1CCC(O)(Cn2cnc3c(cnn3-c3ccc(F)c(N4CCOCC4)c3)c2=O)CC1` [Compound I-639] has an IC50 of 1000 to 10000 nM.
`O=C(c1ccc(F)cc1)N1CCC(O)(Cn2cnc3c(cnn3-c3ccc(F)c(CO)c3)c2=O)CC1` [Compound I-640] showed an IC50 of 1000 to 10000 nM.
Molecule `O=C(c1ccc(OC(F)F)cc1)N1CCC(O)(Cn2cnc3c(cnn3-c3ccc(F)c(CO)c3)c2=O)CC1` [Compound I-641] has an IC50 of 1000 to 10000 nM.
`CC(CC(=O)N1CCC(O)(Cn2cnc3c(cnn3-c3ccc(-c4ccccc4)cc3)c2=O)CC1)n1cccn1` (stereo not drawn) [Compound I-648] was tested, and the IC50 was 1000 to 10000 nM.
Work on `C[C@@H](CC(=O)N1CCC(O)(Cn2cnc3c(cnn3-c3ccc(-c4ccccc4)cc3)c2=O)CC1)n1cccn1` [Compound I-649] yielded an IC50 of 200 to 1000 nM.
Work on `C[C@H](CC(=O)N1CCC(O)(Cn2cnc3c(cnn3-c3ccc(-c4ccccc4)cc3)c2=O)CC1)n1cccn1` [Compound I-650] yielded an IC50 of 1000 to 10000 nM.
`CC(CC(=O)N1CCC(O)(Cn2cnc3c(cnn3-c3ccc(-c4ccc(F)cc4)cc3)c2=O)CC1)n1cccn1` (stereo not drawn) [Compound I-652] showed an IC50 of 200 to 1000 nM.
`C[C@H](CC(=O)N1CCC(O)(Cn2cnc3c(cnn3-c3ccc(-c4ccc(F)cc4)cc3)c2=O)CC1)n1cccn1` [Compound I-653] was tested, and the IC50 was 200 to 1000 nM.
For `C[C@@H](CC(=O)N1CCC(O)(Cn2cnc3c(cnn3-c3ccc(-c4ccc(F)cc4)cc3)c2=O)CC1)n1cccn1` [Compound I-654], the IC50 was > 10000 nM.
In the case of `CNC(=O)N1CCC(O)(Cn2cnc3c(cnn3-c3ccc(-c4ccc(F)cc4)cc3)c2=O)CC1` [Compound I-655], the IC50 is reported as 1000 to 10000 nM.
Work on `C=CC(=O)N1CCC1C(=O)N1CCC(O)(Cn2cnc3c(cnn3-c3ccc(-c4ccccc4)cc3)c2=O)CC1` (stereo not drawn) [Compound I-657] yielded an IC50 of 200 to 1000 nM.
`C#CC(=O)NC1CC(C(=O)N2CCC(O)(Cn3cnc4c(cnn4-c4ccc(-c5ccccc5)cc4)c3=O)CC2)C1` (stereo not drawn) [Compound I-658] showed an IC50 of 1000 to 10000 nM.
For `O=C(NC1CNCC1F)N1CCC(O)(Cn2cnc3c(cnn3-c3ccc(-c4ccccc4)cc3)c2=O)CC1` (stereo not drawn) [Compound I-662], the IC50 was > 10000 nM.
With `O=C(N[C@@H]1CNCC1F)N1CCC(O)(Cn2cnc3c(cnn3-c3ccc(-c4ccccc4)cc3)c2=O)CC1` (stereo partly drawn) [Compound I-663] the IC50 was > 10000 nM.
`O=C(N[C@H]1CNCC1F)N1CCC(O)(Cn2cnc3c(cnn3-c3ccc(-c4ccccc4)cc3)c2=O)CC1` (stereo partly drawn) [Compound I-664] was tested, and the IC50 was 1000 to 10000 nM.
For `O=C(c1ccccc1)N1CCC(O)(Cn2cnc3c(cnn3-c3ccc(-c4ccccc4)c(CO)c3)c2=O)CC1` [Compound I-665], the IC50 was 1000 to 10000 nM.
In the case of `O=C(C1CC1)N1CCC(O)(Cn2cnc3c(cnn3-c3ccc(-c4ccc(OC5CCNC5)cc4)cc3)c2=O)CC1` (stereo not drawn) [Compound I-675], the IC50 is reported as 200 to 1000 nM.
`CN1CCC(Oc2ccc(-c3ccc(-n4ncc5c(=O)n(CC6(O)CCN(C(=O)C7CC7)CC6)cnc54)cc3)cc2)C1` (stereo not drawn) [Compound I-678] gave an IC50 of 200 to 1000 nM.
Molecule `CNC1CCN(c2ccc(-c3ccc(-n4ncc5c(=O)n(CC6(O)CCN(C(=O)C7CC7)CC6)cnc54)cc3)cc2)C1` (stereo not drawn) [Compound I-688] has an IC50 of 200 to 1000 nM.
With `NC1(c2cccc(-c3ccc(-n4ncc5c(=O)n(CC6(O)CCN(C(=O)C7CC7)CC6)cnc54)cc3)c2)COC1` [Compound I-691] the IC50 was 1000 to 10000 nM.
For `O=C(C1CC1)N1CCC(O)(Cn2cnc3c(cnn3-c3ccc(-c4ccccc4)c(N4CCNCC4)c3)c2=O)CC1` [Compound I-698], the IC50 was 200 to 1000 nM.
`CN1CCN(c2ccc(-n3ncc4c(=O)n(CC5(O)CCN(C(=O)C6CC6)CC5)cnc43)cc2Cl)CC1` [Compound I-701] was tested, and the IC50 was 1000 to 10000 nM.
In the case of `Cn1cc(-n2ncc3c(=O)n(CC4(O)CCN(C(=O)c5ccc(F)cc5)CC4)cnc32)cn1` [Compound I-703], the IC50 is reported as 1000 to 10000 nM.
For `O=C(c1ccc(F)cc1)N1CCC(O)(Cn2cnc3c(cnn3-c3cnn(-c4ccccc4)c3)c2=O)CC1` [Compound I-704], the IC50 was 1000 to 10000 nM.
